From patent US12528788B2, “Pesticidally active benzene- and azine-amide compounds” (SYNGENTA CROP PROTECTION AG, priority 2018, dated 2026)

Assays:
Assay type in all cases: in vivo
Spodoptera littoralis [1] = assay: Example B9: Spodoptera littoralis (Egyptian cotton leaf worm), cotton leaf discs sprayed, L1 larvae; conditions: foliar, 72 h, application rate of 200 ppm, 3 days after infestation, read-out: control in at least one of the three categories (mortality, anti-feedant effect or growth inhibition)
Chilo suppressalis = assay: Example B4: Chilo suppressalis (striped rice stemborer), artificial diet, L2 larvae; conditions: 144 h, application rate of 200 ppm, 6 days after infestation, read-out: control in at least one of the three categories (mortality, anti-feedant effect or growth inhibition)
Procedure: Example B4: Chilo suppressalis (Striped Rice Stemborer)
24-well microtiter plates with artificial diet were treated with aqueous test solutions prepared from 10′000 ppm DMSO stock solutions by pipetting. After drying, the plates were infested with L2 larvae (6-8 per well). The samples were assessed for mortality, anti-feeding effect, and growth inhibition in comparison to untreated samples 6 days after infestation. Control of Chilo suppressalis by a test sample is given when at least one of the categories mortality, anti-feedant effect, and growth inhibition is higher than the untreated sample.

Plutella xylostella [2] = assay: Example B5: Plutella xylostella (diamond back moth), artificial diet, 24-well, eggs; conditions: 192 h, application rate of 200 ppm, 8 days after infestation, read-out: control in at least one of the two categories (mortality or growth inhibition)
Procedure: Example B5: Plutella xylostella (Diamond Back Moth)
24-well microtiter plates with artificial diet were treated with aqueous test solutions prepared from 10′000 ppm DMSO stock solutions by pipetting. After drying, Plutella eggs were pipetted through a plastic stencil onto a gel blotting paper and the plate was closed with it. The samples were assessed for mortality and growth inhibition in comparison to untreated samples 8 days after infestation.

Myzus persicae [3] = assay: Example B7: Myzus persicae (green peach aphid) systemic activity; conditions: 144 h, test rate of 24 ppm, 6 days after placing seedlings into test solutions, pea seedlings
Procedure: Example B7: Myzus persicae (Green Peach Aphid) Systemic Activity
Roots of pea seedlings infested with an aphid population of mixed ages were placed directly into aqueous test solutions prepared from 10′000 DMSO stock solutions. The samples were assessed for mortality 6 days after placing seedlings into test solutions.

Myzus persicae [4] = assay: Example B8: Myzus persicae (green peach aphid) intrinsic activity; conditions: 120 h, test rate of 12 ppm, 5 days after infestation, sucrose solution
Excerpt: Example B8: Myzus persicae (Green Peach Aphid). Intrinsic Activity
Test compounds prepared from 10′000 ppm DMSO stock solutions were applied by pipette into 24-well microtiter plates and mixed with sucrose solution. The plates were closed with a stretched Parafilm. A plastic stencil with 24 holes was placed onto the plate and infested pea seedlings were placed directly on the Parafilm. The infested plate was closed with a gel blotting paper and another plastic stencil and then turned upside down. The samples were assessed for mortality 5 days after infestation.

Myzus persicae [5] = assay: Example B13: Myzus persicae (green peach aphid), 96-well sucrose solution; conditions: 120 h, application rate of 50 ppm, 5 days after infestation
Excerpt: Example B13: Myzus persicae (Green Peach Aphid)
Test compounds prepared from 10′000 ppm DMSO stock solutions were applied by a liquid handling robot into 96-well microtiter plates and mixed with a sucrose solution. Parafilm was stretched over the 96-well microtiter plate and a plastic stencil with 96 holes was placed onto the plate. Aphids were sieved into the wells directly onto the Parafilm. The infested plates were closed with a gel blotting card and a second plastic stencil and then turned upside down. The samples were assessed for mortality 5 days after infestation.

Tetranychus urticae = assay: Example B11: Tetranychus urticae (two-spotted spider mite) feeding/contact activity; conditions: foliar, 192 h, application rate of 200 ppm, 8 days after infestation, bean leaf discs, mixed population (mobile stages)
Procedure: Example B11: Tetranychus urticae (Two-Spotted Spider Mite): Feeding/Contact Activity
Bean leaf discs on agar in 24-well microtiter plates were sprayed with aqueous test solutions prepared from 10′000 ppm DMSO stock solutions. After drying the leaf discs were infested with a mite population of mixed ages. The samples were assessed for mortality on mixed population (mobile stages) 8 days after infestation.

Plutella xylostella [6] = assay: Example B14: Plutella xylostella (diamondback moth), 96-well artificial diet; conditions: 216 h, application rate of 500 ppm, 9 days after infestation
Procedure: Example B14: Plutella xylostella (Diamondback Moth)
96-well microtiter plates containing artificial diet were treated with aqueous test solutions, prepared from 10′000 ppm DMSO stock solutions, by a liquid handling robot. After drying, eggs (˜30 per well) were infested onto a netted lid which was suspended above the diet. The eggs hatch and L1 larvae move down to the diet. The samples were assessed for mortality 9 days after infestation.

Euschistus heros = assay: Example B2: Euschistus heros (neotropical brown stink bug), soybean leaves sprayed, N2 nymphs; conditions: 120 h, application rate of 200 ppm, 5 days after infestation, N2 nymphs on soybean leaves, read-out: control in at least one of the two categories (mortality or growth inhibition)
Procedure: Example B2: Euschistus heros (Neotropical Brown Stink Bug)
Soybean leaves on agar in 24-well microtiter plates were sprayed with aqueous test solutions prepared from 10′000 ppm DMSO stock solutions. After drying the leaves were infested with N2 nymphs. The samples were assessed for mortality and growth inhibition in comparison to untreated samples 5 days after infestation.

Myzus persicae [7] = assay: Example B6: Myzus persicae (green peach aphid) feeding/contact activity; conditions: foliar, 144 h, application rate of 200 ppm, 6 days after infestation, sunflower leaf discs
Procedure: Example B6: Myzus persicae (Green Peach Aphid) Feeding/Contact Activity
Sunflower leaf discs were placed onto agar in a 24-well microtiter plate and sprayed with aqueous test solutions prepared from 10′000 ppm DMSO stock solutions. After drying, the leaf discs were infested with an aphid population of mixed ages. The samples were assessed for mortality 6 days after infestation.

Diabrotica balteata = assay: Example B1: Diabrotica balteata (corn root worm), maize sprouts sprayed, L2 larvae; conditions: 96 h, application rate of 200 ppm, 4 days after infestation, L2 larvae on maize sprouts, read-out: control in at least one of the two categories (mortality or growth inhibition)
Procedure: Example B1: Diabrotica balteata (Corn Root Worm)
Maize sprouts placed onto an agar layer in 24-well microtiter plates were treated with aqueous test solutions prepared from 10′000 ppm DMSO stock solutions by spraying. After drying, the plates were infested with L2 larvae (6 to 10 per well). The samples were assessed for mortality and growth inhibition in comparison to untreated samples 4 days after infestation.

Spodoptera littoralis [8] = assay: Example B10: Spodoptera littoralis (Egyptian cotton leaf worm), uptake by lettuce roots from agar; conditions: 144 h, test rate of 12.5 ppm, 6 days after infestation, lettuce grown on treated agar, read-out: control in at least one of the three categories (mortality, anti-feeding, or growth inhibition)
Excerpt: Example B10: Spodoptera littoralis (Egyptian Cotton Leaf Worm)
Test compounds were applied by pipette from 10′000 ppm DMSO stock solutions into 24-well plates and mixed with agar. Lettuce seeds were placed onto the agar and the multi well plate was closed by another plate which contained also agar. After 7 days the compound was absorbed by the roots and the lettuce grew into the lid plate. The lettuce leaves were then cut off into the lid plate. Spodoptera eggs were pipetted through a plastic stencil onto a humid gel blotting paper and the lid plate was closed with it. The samples were assessed for mortality, anti-feedant effect and growth inhibition in comparison to untreated samples 6 days after infestation.

[9] = system: Frankliniella occidentalis; assay: Example B3: Frankliniella occidentalis (western flower thrips) feeding/contact activity; conditions: foliar, 168 h, application rate of 200 ppm, 7 days after infestation, sunflower leaf discs, mixed ages
Procedure: Example B3: Frankliniella occidentalis (Western Flower Thrips) Feeding/Contact Activity
(§1) Sunflower leaf discs were placed on agar in 24-well microtiter plates and sprayed with aqueous test solutions prepared from 10′000 DMSO stock solutions. After drying the leaf discs were infested with a Frankliniella population of mixed ages. The samples were assessed for mortality 7 days after infestation.

Thrips tabaci = assay: Example B12: Thrips tabaci (onion thrips) feeding/contact activity; conditions: foliar, 144 h, application rate of 200 ppm, 6 days after infestation, sunflower leaf discs
Procedure: Example B12: Thrips tabaci (Onion Thrips) Feeding/Contact Activity
as §1, with “10′000 ppm” for “10′000”, “Thrips” for “Frankliniella”, “6” for “7”

CC(NC(=O)c1cc(OC(F)F)cc(C(F)(F)F)c1)c1nccnc1-c1ncccn1 (centres unmarked) [Compound P23, 3-(difluoromethoxy)-N-[1-(3-pyrimidin-2-ylpyrazin-2-yl)ethyl]-5-(trifluoromethyl)benzamide]
≥ 80%: percent control (mortality, anti-feedant effect or growth inhibition) at 200 ppm (Spodoptera littoralis [1]) | percent control (mortality, anti-feedant effect or growth inhibition) at 200 ppm (Chilo suppressalis) | percent control (mortality or growth inhibition) at 200 ppm (Plutella xylostella [2]) | mortality at 24 ppm (Myzus persicae [3]) | mortality at 12 ppm (Myzus persicae [4]) | mortality at 50 ppm (Myzus persicae [5]) | mortality at 200 ppm (Tetranychus urticae) | mortality at 500 ppm (Plutella xylostella [6]) | percent control (mortality or growth inhibition) at 200 ppm (Euschistus heros) | mortality at 200 ppm (Myzus persicae [7]) | percent control (mortality or growth inhibition) at 200 ppm (Diabrotica balteata) | percent control (mortality, anti-feeding or growth inhibition) at 12.5 ppm (Spodoptera littoralis [8])

CC(NC(=O)c1cc(SC(F)(F)F)cc(C(F)(F)F)c1)c1nccnc1-c1ncccn1 (centres unmarked) [Compound P19, N-[1-(3-pyrimidin-2-ylpyrazin-2-yl)ethyl]-3-(trifluoromethyl)-5-(trifluoromethylsulfanyl)benzamide]
≥ 80%: percent control (mortality, anti-feedant effect or growth inhibition) at 200 ppm (Spodoptera littoralis [1]) | percent control (mortality, anti-feedant effect or growth inhibition) at 200 ppm (Chilo suppressalis) | percent control (mortality or growth inhibition) at 200 ppm (Plutella xylostella [2]) | mortality at 12 ppm (Myzus persicae [4]) | mortality at 50 ppm (Myzus persicae [5]) | mortality at 500 ppm (Plutella xylostella [6]) | mortality at 200 ppm [9] | percent control (mortality or growth inhibition) at 200 ppm (Diabrotica balteata)

CC(c1nccnc1-c1ncccn1)N(CC1CC1)C(=O)c1cc(C(F)(F)F)cc(C(F)(F)F)c1 (centres unmarked) [Compound P5, N-(cyclopropylmethyl)-N-[1-(3-pyrimidin-2-ylpyrazin-2-yl)ethyl]-3,5-bis(trifluoromethyl)benzamide]
≥ 80%: percent control (mortality, anti-feedant effect or growth inhibition) at 200 ppm (Spodoptera littoralis [1]) | percent control (mortality, anti-feedant effect or growth inhibition) at 200 ppm (Chilo suppressalis) | percent control (mortality or growth inhibition) at 200 ppm (Plutella xylostella [2]) | mortality at 12 ppm (Myzus persicae [4]) | mortality at 50 ppm (Myzus persicae [5]) | mortality at 500 ppm (Plutella xylostella [6]) | percent control (mortality or growth inhibition) at 200 ppm (Euschistus heros) | mortality at 200 ppm (Thrips tabaci) | percent control (mortality or growth inhibition) at 200 ppm (Diabrotica balteata)
